From patent US6462055B2, “Alpha-methylbenzyl-containing thiourea inhibitors of herpes viruses containing a phenylenediamine group” (Wyeth, priority 1998, dated 2002)
Values after ≈ are worked out from the molar mass of the structure shown.

Tested on: HCMV recombinant mutant virus (RV145)
Assay: microbe, parasite or virus in culture
Assay type: cell-based, human cytomegalovirus
Settings: HCMV
Text: Microtiter plate assay. Ninety-six well plate cultures of human foreskin fibroblasts are infected in the presence of inhibitor compound with a HCMV recombinant mutant virus whose genome contains the prokaryotic beta-glucuronidase gene (Jefferson, R. A., S. M. Burgess, and D. Hirsh. 1986. Beta-glucuronidase from Escherichia coli as a gene fusion marker. Proc. Natl. Acad. Sci. USA 83:8447-8451) whose expression is controlled by a viral promoter. An example of such a virus is RV145 (Jones, T. R., V. P. Muzithras, and Y. Gluzman. 1991. Replacement mutagenesis of the human cytomegalovirus genome: US10 and US11 gene products are nonessential. J. Virol. 65:5860-5872). Since it is under the control of a viral promoter, beta-glucuronidase expression is an indirect indicator of growth and replication of HCMV in this assay. At 96 hours post-infection, the infected cell lysates are prepared (using 50 mM sodium phosphate [pH7.0]containing 0.1% Triton X-100 and 0.1% sarkosyl) and assayed for beta-glucuronidase activity using a substrate for the enzyme which when cleaved yields either a product which can be measured […] in a spectrophotometer or fluorescently in a microfluorimeter. Examples of such substrates are p-nitrophenyl-beta-D-glucuronide and methylumbelliferylglucuronide, respectively. The presence of an antiviral compound is indicated by the reduced expression of the HCMV genome resident beta-glucuronidase gene, compared to the absence of inhibitor. […] Data from this assay generated using varying amounts of inhibitor compound is also used to estimate the IC50 of an inhibitor compound.

SMILES	IC50 ug/ml HCMV [µg/mL]
COc1cc(OC)c(NC(=S)Nc2ccc(NC(=O)c3ccccc3F)cc2)cc1Cl [Example 118]	3 (≈ 6.52 µM)
COc1cc(OC)c(NC(=S)Nc2ccc(NC(=O)c3ccccc3OC)cc2)cc1Cl [Example 119]	> 10
COc1cccc(C(=O)Nc2ccc(NC(=S)Nc3cc(Cl)c(OC)cc3OC)cc2)c1 [Example 120]	5 (≈ 10.6 µM)
COc1ccc(C(=O)Nc2ccc(NC(=S)Nc3cc(Cl)c(OC)cc3OC)cc2)cc1 [Example 121]	6 (≈ 12.7 µM)
COc1cc(OC)c(NC(=S)Nc2ccc(NC(=O)c3ccccc3)cc2)cc1Cl [Example 122]	4 (≈ 9.05 µM)
COc1c(Cl)cc(NC(=S)Nc2ccc(NC(=O)c3ccc(F)cc3)cc2)cc1Cl [Example 133]	0.6 (≈ 1.29 µM)
COc1cc(OC)c(NC(=S)Nc2ccc(NC(=O)c3cccc(NC(C)=O)c3)cc2)cc1Cl [Example 134]	4 (≈ 8.02 µM)
COc1cc(OC)c(NC(=S)Nc2ccc(NC(=O)c3cccc([N+](=O)[O-])c3)cc2)cc1Cl [Example 135]	5 (≈ 10.3 µM)
COc1cc(OC)c(NC(=S)Nc2ccc(NC(=O)c3ccccc3C(F)(F)F)cc2)cc1Cl [Example 138]	8 (≈ 15.7 µM)
COc1cc(OC)c(NC(=S)Nc2ccc(NC(=O)c3ccccc3O)cc2)cc1Cl [Example 139]	6 (≈ 13.1 µM)
COc1cc(OC)c(NC(=S)Nc2ccc(NC(=O)c3c(F)cccc3F)cc2)cc1Cl [Example 140]	4 (≈ 8.37 µM)
COc1cc(OC)c(NC(=S)Nc2ccc(NC(=O)c3ccccc3Cl)cc2)cc1Cl [Example 141]	6 (≈ 12.6 µM)
COc1cc(OC)c(NC(=S)Nc2ccc(NC(=O)c3ccccc3[N+](=O)[O-])cc2)cc1Cl [Example 143]	> 10
COc1cc(OC)c(NC(=S)Nc2ccc(NC(=O)c3cccc4ccccc34)cc2)cc1Cl [Example 157]	8 (≈ 16.3 µM)
CCOC(=O)Nc1cccc(C(=O)Nc2ccc(NC(=S)Nc3cc(Cl)c(OC)cc3OC)cc2)c1 [Example 180]	1.5 (≈ 2.84 µM)
COc1cc(OC)c(NC(=S)Nc2ccc(NC(=O)c3ccccc3N)cc2)cc1Cl [Example 181]	>10
COc1cc(OC)c(NC(=S)Nc2ccc(NC(=O)c3ccccc3C(=O)O)cc2)cc1Cl [Example 184]	>50

Tested on: HSV-1
Assay: HSV Antiviral (ELISA) Assay in Vero cells
Assay type: cell-based, herpes simplex virus type 1
Settings: HSV-1, Vero cells
In short: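 Viral replication was quantified by cell-fixed ELISA for HSV glycoprotein D, using a β-galactosidase reporter and fluorogenic umbelliferyl substrate, about 24 h after HSV-1 infection (MOI 0.006) of Vero cells. Compounds, at several concentrations, were added 30 min pre-infection. IC50 was derived from fluorescence relative to the compound-free signal.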

SMILES	IC50 (ug/ml) HSV [µg/mL]
COc1cc(OC)c(NC(=S)Nc2ccc(NC(=O)c3ccccc3F)cc2)cc1Cl [Example 118]	0.15 (≈ 0.326 µM)
COc1cc(OC)c(NC(=S)Nc2ccc(NC(=O)c3ccccc3OC)cc2)cc1Cl [Example 119]	0.5 (≈ 1.06 µM)
COc1cccc(C(=O)Nc2ccc(NC(=S)Nc3cc(Cl)c(OC)cc3OC)cc2)c1 [Example 120]	0.8 (≈ 1.7 µM)
COc1ccc(C(=O)Nc2ccc(NC(=S)Nc3cc(Cl)c(OC)cc3OC)cc2)cc1 [Example 121]	0.3 (≈ 0.636 µM)
COc1cc(OC)c(NC(=S)Nc2ccc(NC(=O)c3ccccc3)cc2)cc1Cl [Example 122]	0.3 (≈ 0.679 µM)
COc1c(Cl)cc(NC(=S)Nc2ccc(NC(=O)c3ccc(F)cc3)cc2)cc1Cl [Example 133]	7 (≈ 15.1 µM)
COc1cc(OC)c(NC(=S)Nc2ccc(NC(=O)c3cccc(NC(C)=O)c3)cc2)cc1Cl [Example 134]	> 10
COc1cc(OC)c(NC(=S)Nc2ccc(NC(=O)c3cccc([N+](=O)[O-])c3)cc2)cc1Cl [Example 135]	1.5 (≈ 3.08 µM)
COc1cc(OC)c(NC(=S)Nc2ccc(NC(=O)c3ccccc3C(F)(F)F)cc2)cc1Cl [Example 138]	1 (≈ 1.96 µM)
COc1cc(OC)c(NC(=S)Nc2ccc(NC(=O)c3ccccc3O)cc2)cc1Cl [Example 139]	6 (≈ 13.1 µM)
COc1cc(OC)c(NC(=S)Nc2ccc(NC(=O)c3c(F)cccc3F)cc2)cc1Cl [Example 140]	0.15 (≈ 0.314 µM)
COc1cc(OC)c(NC(=S)Nc2ccc(NC(=O)c3ccccc3Cl)cc2)cc1Cl [Example 141]	0.25 (≈ 0.525 µM)
COc1cc(OC)c(NC(=S)Nc2ccc(NC(=O)c3ccccc3[N+](=O)[O-])cc2)cc1Cl [Example 143]	1 (≈ 2.05 µM)
COc1cc(OC)c(NC(=S)Nc2ccc(NC(=O)c3cccc4ccccc34)cc2)cc1Cl [Example 157]	0.9 (≈ 1.83 µM)
CCOC(=O)Nc1cccc(C(=O)Nc2ccc(NC(=S)Nc3cc(Cl)c(OC)cc3OC)cc2)c1 [Example 180]	1.3 (≈ 2.46 µM)
COc1cc(OC)c(NC(=S)Nc2ccc(NC(=O)c3ccccc3N)cc2)cc1Cl [Example 181]	1.5 (≈ 3.28 µM)
COc1cc(OC)c(NC(=S)Nc2ccc(NC(=O)c3ccccc3C(=O)O)cc2)cc1Cl [Example 184]	>50

Tested on: VZV strain Ellen
Assay: VZV Antiviral (ELISA) Assay in human foreskin fibroblast cells
Assay type: cell-based, varicella-zoster virus
Settings: not given
In short: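 Low-MOI (<0.1) Ellen infection of HFF overnight; cell mix plated 3.5×10^4/well with compound, DMEM + 2% FBS, 3 d, 37° C, 5% CO2. Fix, anti-gpII mAb ELISA, MUG substrate, fluorescence. IC50 vs compound-free signal.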

SMILES	IC50 (ug/ml) VZV [µg/mL]
COc1cc(OC)c(NC(=S)Nc2ccc(NC(=O)c3ccccc3F)cc2)cc1Cl [Example 118]	>10
COc1cc(OC)c(NC(=S)Nc2ccc(NC(=O)c3ccccc3OC)cc2)cc1Cl [Example 119]	>10
COc1cccc(C(=O)Nc2ccc(NC(=S)Nc3cc(Cl)c(OC)cc3OC)cc2)c1 [Example 120]	>10
COc1ccc(C(=O)Nc2ccc(NC(=S)Nc3cc(Cl)c(OC)cc3OC)cc2)cc1 [Example 121]	>10
COc1cc(OC)c(NC(=S)Nc2ccc(NC(=O)c3ccccc3)cc2)cc1Cl [Example 122]	>10
COc1c(Cl)cc(NC(=S)Nc2ccc(NC(=O)c3ccc(F)cc3)cc2)cc1Cl [Example 133]	>10
COc1cc(OC)c(NC(=S)Nc2ccc(NC(=O)c3cccc(NC(C)=O)c3)cc2)cc1Cl [Example 134]	>10
COc1cc(OC)c(NC(=S)Nc2ccc(NC(=O)c3cccc([N+](=O)[O-])c3)cc2)cc1Cl [Example 135]	>10
COc1cc(OC)c(NC(=S)Nc2ccc(NC(=O)c3ccccc3C(F)(F)F)cc2)cc1Cl [Example 138]	>10
COc1cc(OC)c(NC(=S)Nc2ccc(NC(=O)c3ccccc3O)cc2)cc1Cl [Example 139]	4 (≈ 8.73 µM)
COc1cc(OC)c(NC(=S)Nc2ccc(NC(=O)c3c(F)cccc3F)cc2)cc1Cl [Example 140]	10 (≈ 20.9 µM)
COc1cc(OC)c(NC(=S)Nc2ccc(NC(=O)c3ccccc3Cl)cc2)cc1Cl [Example 141]	>10
COc1cc(OC)c(NC(=S)Nc2ccc(NC(=O)c3ccccc3[N+](=O)[O-])cc2)cc1Cl [Example 143]	>15
COc1cc(OC)c(NC(=S)Nc2ccc(NC(=O)c3cccc4ccccc34)cc2)cc1Cl [Example 157]	>10
CCOC(=O)Nc1cccc(C(=O)Nc2ccc(NC(=S)Nc3cc(Cl)c(OC)cc3OC)cc2)c1 [Example 180]	>10
COc1cc(OC)c(NC(=S)Nc2ccc(NC(=O)c3ccccc3N)cc2)cc1Cl [Example 181]	>10
COc1cc(OC)c(NC(=S)Nc2ccc(NC(=O)c3ccccc3C(=O)O)cc2)cc1Cl [Example 184]	>10

Same assay, conditions: 10 ug/ml

SMILES	% inhibition 10 ug/ml VZV [%]
COc1cc(OC)c(NC(=S)Nc2ccc(NC(=O)c3ccccc3OC)cc2)cc1Cl [Example 119]	1
COc1cccc(C(=O)Nc2ccc(NC(=S)Nc3cc(Cl)c(OC)cc3OC)cc2)c1 [Example 120]	25
COc1ccc(C(=O)Nc2ccc(NC(=S)Nc3cc(Cl)c(OC)cc3OC)cc2)cc1 [Example 121]	0
COc1cc(OC)c(NC(=S)Nc2ccc(NC(=O)c3ccccc3)cc2)cc1Cl [Example 122]	13
COc1c(Cl)cc(NC(=S)Nc2ccc(NC(=O)c3ccc(F)cc3)cc2)cc1Cl [Example 133]	36
COc1cc(OC)c(NC(=S)Nc2ccc(NC(=O)c3cccc(NC(C)=O)c3)cc2)cc1Cl [Example 134]	50
COc1cc(OC)c(NC(=S)Nc2ccc(NC(=O)c3cccc([N+](=O)[O-])c3)cc2)cc1Cl [Example 135]	0
COc1cc(OC)c(NC(=S)Nc2ccc(NC(=O)c3ccccc3C(F)(F)F)cc2)cc1Cl [Example 138]	57
COc1cc(OC)c(NC(=S)Nc2ccc(NC(=O)c3ccccc3O)cc2)cc1Cl [Example 139]	95
COc1cc(OC)c(NC(=S)Nc2ccc(NC(=O)c3c(F)cccc3F)cc2)cc1Cl [Example 140]	65
COc1cc(OC)c(NC(=S)Nc2ccc(NC(=O)c3ccccc3Cl)cc2)cc1Cl [Example 141]	40
COc1cc(OC)c(NC(=S)Nc2ccc(NC(=O)c3ccccc3[N+](=O)[O-])cc2)cc1Cl [Example 143]	68
COc1cc(OC)c(NC(=S)Nc2ccc(NC(=O)c3cccc4ccccc34)cc2)cc1Cl [Example 157]	32
CCOC(=O)Nc1cccc(C(=O)Nc2ccc(NC(=S)Nc3cc(Cl)c(OC)cc3OC)cc2)c1 [Example 180]	36
COc1cc(OC)c(NC(=S)Nc2ccc(NC(=O)c3ccccc3N)cc2)cc1Cl [Example 181]	60
